From PubChem BioAssay AID2060485 (Molecular Pharmacology Branch, DTP, NCI, 2025)

System: A375 multi-cell spheroids with HUVEC/MSC, viability
Test: Anticancer human tumor A375 cell line growth inhibition [GQUAD];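 note: spheroids exposed to compounds for seven days before readout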
Conditions: for IC50: curve of first compound; for viability, T/C: stronger effect = lower value
In short: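 Multi-cell-type spheroids of tumor cells with HUVEC and mesenchymal stem cells, treated with drug combinations. Concentrations descend in half-log steps from near clinical Cmax, or from 10 microM where Cmax is unknown; viability read-out.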

[1] = second compound 0.0316 µM, first compound 0.0316 µM
[2] = second compound 0.0316 µM, first compound 0.1 µM
[3] = second compound 0.0316 µM, first compound 0.316 µM
[4] = second compound 0.0316 µM, first compound 1 µM
[5] = second compound 0.0316 µM, first compound 3.16 µM
[6] = second compound 0.0316 µM, first compound 10 µM
[7] = second compound 0.1 µM, first compound 0.0316 µM
[8] = second compound 0.1 µM, first compound 0.1 µM
[9] = second compound 0.1 µM, first compound 0.316 µM
[10] = second compound 0.1 µM, first compound 1 µM
[11] = second compound 0.1 µM, first compound 3.16 µM
[12] = second compound 0.1 µM, first compound 10 µM
[13] = second compound 0.316 µM, first compound 0.0316 µM
[14] = second compound 0.316 µM, first compound 0.1 µM
[15] = second compound 0.316 µM, first compound 0.316 µM
[16] = second compound 0.316 µM, first compound 1 µM
[17] = second compound 0.316 µM, first compound 3.16 µM
[18] = second compound 0.316 µM, first compound 10 µM
[19] = second compound 1 µM, first compound 0.0316 µM
[20] = second compound 1 µM, first compound 0.1 µM
[21] = second compound 1 µM, first compound 0.316 µM
[22] = second compound 1 µM, first compound 1 µM
[23] = second compound 1 µM, first compound 3.16 µM
[24] = second compound 1 µM, first compound 10 µM
[25] = second compound 3.16 µM, first compound 0.0316 µM
[26] = second compound 3.16 µM, first compound 0.1 µM
[27] = second compound 3.16 µM, first compound 0.316 µM
[28] = second compound 3.16 µM, first compound 1 µM
[29] = second compound 3.16 µM, first compound 3.16 µM
[30] = second compound 3.16 µM, first compound 10 µM
[31] = second compound 10 µM, first compound 0.0316 µM
[32] = second compound 10 µM, first compound 0.1 µM
[33] = second compound 10 µM, first compound 0.316 µM
[34] = second compound 10 µM, first compound 1 µM
[35] = second compound 10 µM, first compound 3.16 µM
[36] = second compound 10 µM, first compound 10 µM

With `CC1COCCN1c1cc(-c2ccnn2C)c2ccnc(-c3ccn[nH]3)c2n1` (stereo not drawn) + CN(C)c1ccc(Nc2c3ccc(NC(=O)CCN4CCCC4)cc3nc3cc(NC(=O)CCN4CCCC4)ccc23)cc1 the IC50 (second compound 0.0316 µM) was 308 nM, the IC50 (second compound 0.1 µM) was 303 nM and the IC50 (second compound 0.316 µM) was 344 nM. The IC50 (second compound 1 µM) was 339 nM, the IC50 (second compound 3.16 µM) was 319 nM and the IC50 (second compound 10 µM) was 283 nM. For the same compound, the viability, T/C [1] was 105%, the viability, T/C [2] was 78.3% and the viability, T/C [3] was 50.8%. It also gave a viability, T/C [4] of 25.8%, a viability, T/C [5] of 10% and a viability, T/C [6] of 9.41%. The viability, T/C [7] was 114%, the viability, T/C [8] was 82% and the viability, T/C [9] was 48.8%. It also gave a viability, T/C [10] of 26.6%, a viability, T/C [11] of 10.1% and a viability, T/C [12] of 9.57%. For the same compound, the viability, T/C [13] was 111%, the viability, T/C [14] was 82.6% and the viability, T/C [15] was 53.6%. It also gave a viability, T/C [16] of 26.7%, a viability, T/C [17] of 11.1% and a viability, T/C [18] of 9.6%. For the same compound, the viability, T/C [19] was 108%, the viability, T/C [20] was 82.9% and the viability, T/C [21] was 51.4%. For the same compound, the viability, T/C [22] was 27.5%, the viability, T/C [23] was 11.2% and the viability, T/C [24] was 8.68%. It also gave a viability, T/C [25] of 110%, a viability, T/C [26] of 83.9% and a viability, T/C [27] of 48.9%. The viability, T/C [28] was 28.2%, the viability, T/C [29] was 10.8% and the viability, T/C [30] was 10.2%. The viability, T/C [31] was 97.7%, the viability, T/C [32] was 74.2% and the viability, T/C [33] was 47.3%. The viability, T/C [34] was 27.6%, the viability, T/C [35] was 11.1% and the viability, T/C [36] was 9.62%.
For `C#Cc1c(F)ccc2cc(O)cc(-c3ncc4c(N5CC6CCC(C5)N6)nc(OCC56CCCN5CC(F)C6)nc4c3F)c12` (stereo not drawn) + Cc1cnc(CNC(=O)c2c(=O)c3ccc(N4CCCN(C)CC4)nc3n3c2sc2ccccc23)cn1, the IC50 (second compound 0.0316 µM) was greater than 10000 nM, the IC50 (second compound 0.1 µM) was greater than 10000 nM and the IC50 (second compound 0.316 µM) was greater than 10000 nM. For the same compound, the IC50 (second compound 1 µM) was less than 31.6 nM, the IC50 (second compound 3.16 µM) was less than 31.6 nM and the IC50 (second compound 10 µM) was less than 31.6 nM. The viability, T/C [1] was 106%, the viability, T/C [2] was 109% and the viability, T/C [3] was 121%. For the same compound, the viability, T/C [4] was 120%, the viability, T/C [5] was 117% and the viability, T/C [6] was 117%. The viability, T/C [7] was 79%, the viability, T/C [8] was 74.6% and the viability, T/C [9] was 93.8%. It also gave a viability, T/C [10] of 85.1%, a viability, T/C [11] of 88.3% and a viability, T/C [12] of 96%. The viability, T/C [13] was 59.1%, the viability, T/C [14] was 51.8% and the viability, T/C [15] was 64.3%. It also gave a viability, T/C [16] of 55.1%, a viability, T/C [17] of 58.6% and a viability, T/C [18] of 47.9%. The viability, T/C [19] was 42.6%, the viability, T/C [20] was 42.6% and the viability, T/C [21] was 39.4%. It also gave a viability, T/C [22] of 40%, a viability, T/C [23] of 37.4% and a viability, T/C [24] of 38.8%. It also gave a viability, T/C [25] of 40.6%, a viability, T/C [26] of 36.9% and a viability, T/C [27] of 36.6%. For the same compound, the viability, T/C [28] was 34.7%, the viability, T/C [29] was 36.3% and the viability, T/C [30] was 33.7%. For the same compound, the viability, T/C [31] was 25.7%, the viability, T/C [32] was 28.3% and the viability, T/C [33] was 33.2%. For the same compound, the viability, T/C [34] was 34%, the viability, T/C [35] was 33.2% and the viability, T/C [36] was 32.3%.
Work on `CC1COCCN1c1cc(C2(S(C)(=N)=O)CC2)nc(-c2ccnc3[nH]ccc23)n1` (stereo not drawn) + Cc1[nH]c2ccc(F)cc2c1-c1nc2c3cccnc3c3ncccc3c2[nH]1 yielded an IC50 (second compound 0.0316 µM) of 7110 nM, an IC50 (second compound 0.1 µM) of 8020 nM and an IC50 (second compound 0.316 µM) of 9010 nM. The IC50 (second compound 1 µM) was 7960 nM, the IC50 (second compound 3.16 µM) was 1300 nM and the IC50 (second compound 10 µM) was 2110 nM. For the same compound, the viability, T/C [1] was 105%, the viability, T/C [2] was 107% and the viability, T/C [3] was 99.4%. For the same compound, the viability, T/C [4] was 92%, the viability, T/C [5] was 64.5% and the viability, T/C [6] was 43.9%. For the same compound, the viability, T/C [7] was 113%, the viability, T/C [8] was 106% and the viability, T/C [9] was 107%. It also gave a viability, T/C [10] of 98.2%, a viability, T/C [11] of 74.4% and a viability, T/C [12] of 44.2%. For the same compound, the viability, T/C [13] was 106%, the viability, T/C [14] was 105% and the viability, T/C [15] was 112%. For the same compound, the viability, T/C [16] was 109%, the viability, T/C [17] was 78.7% and the viability, T/C [18] was 47.2%. It also gave a viability, T/C [19] of 108%, a viability, T/C [20] of 109% and a viability, T/C [21] of 115%. It also gave a viability, T/C [22] of 112%, a viability, T/C [23] of 82% and a viability, T/C [24] of 42%. For the same compound, the viability, T/C [25] was 107%, the viability, T/C [26] was 88.7% and the viability, T/C [27] was 83.3%. It also gave a viability, T/C [28] of 57%, a viability, T/C [29] of 27.8% and a viability, T/C [30] of 12.9%. For the same compound, the viability, T/C [31] was 94.5%, the viability, T/C [32] was 107% and the viability, T/C [33] was 104%. The viability, T/C [34] was 74.9%, the viability, T/C [35] was 36.9% and the viability, T/C [36] was 15.4%.
`Nc1ccn(C2OC(CO)C(O)C2(F)F)c(=O)n1` (stereo not drawn) + Cc1[nH]c2ccc(F)cc2c1-c1nc2c3cccnc3c3ncccc3c2[nH]1 showed an IC50 (second compound 0.0316 µM) of less than 31.6 nM, an IC50 (second compound 0.1 µM) of less than 31.6 nM and an IC50 (second compound 0.316 µM) of less than 31.6 nM. For the same compound, the IC50 (second compound 1 µM) was less than 31.6 nM, the IC50 (second compound 3.16 µM) was less than 31.6 nM and the IC50 (second compound 10 µM) was less than 31.6 nM. For the same compound, the viability, T/C [1] was 20.4%, the viability, T/C [2] was 11% and the viability, T/C [3] was 10.3%. For the same compound, the viability, T/C [4] was 8.14%, the viability, T/C [5] was 10.7% and the viability, T/C [6] was 10.2%. For the same compound, the viability, T/C [7] was 22.9%, the viability, T/C [8] was 9.94% and the viability, T/C [9] was 12%. It also gave a viability, T/C [10] of 9.5%, a viability, T/C [11] of 12.2% and a viability, T/C [12] of 8.91%. For the same compound, the viability, T/C [13] was 21.1%, the viability, T/C [14] was 12.7% and the viability, T/C [15] was 11.2%. For the same compound, the viability, T/C [16] was 10.8%, the viability, T/C [17] was 10.8% and the viability, T/C [18] was 11.3%. For the same compound, the viability, T/C [19] was 22.9%, the viability, T/C [20] was 12.7% and the viability, T/C [21] was 14.8%. For the same compound, the viability, T/C [22] was 13.6%, the viability, T/C [23] was 12.8% and the viability, T/C [24] was 11.8%. The viability, T/C [25] was 15.4%, the viability, T/C [26] was 13.1% and the viability, T/C [27] was 13%. It also gave a viability, T/C [28] of 13.9%, a viability, T/C [29] of 19% and a viability, T/C [30] of 13.9%. For the same compound, the viability, T/C [31] was 16.1%, the viability, T/C [32] was 10.7% and the viability, T/C [33] was 10.9%. The viability, T/C [34] was 10.3%, the viability, T/C [35] was 13.2% and the viability, T/C [36] was 12%.
